Assay results: ChEMBL document CHEMBL1139246, “Pyridine-3-carboxamides as novel CB(2) agonists for analgesia” (Bioorg Med Chem Lett, 2009)
Several values for one entry are separate records, joined by “and”; a condition that tells them apart may be missing. Equal entries are not always repeated.

Assays:
[1] = Dissociation constant, pKa of the compound; assay type: physicochemical
Rattus norvegicus = test: Dose normalized AUC (0 to t) in rat at 30 mg/kg, po after 6 hrs; assay type: ADME, organism-based; design: time < 6 hr, dose 30 mg/kg, route oral; details: in vivo
[2] = Oral bioavailability in rat at 3 mg/kg; assay type: ADME, organism-based; details: in vivo
[3] = Clearance in rat at 1 mg/kg, iv; assay type: ADME, organism-based; design: dose 1 mg/kg, route intravenous; details: in vivo
[4] = Volume of distribution in rat at 1 mg/kg, iv; assay type: ADME, organism-based; design: dose 1 mg/kg, route intravenous; details: in vivo
[5] = Half life in rat at 1 mg/kg, iv; assay type: ADME, organism-based; design: dose 1 mg/kg, route intravenous; details: in vivo

Row | SMILES | pKa [1] | further results
1 | CC(C)c1cc(Nc2cccc(Cl)c2)ncc1C(=O)NCC1CCOCC1 | 6.02 | 
2 | O=C(NCC1CCOCC1)c1cnc(Nc2cccc(Cl)c2)cc1C(F)(F)F | 2.63 | 
3 | O=C(NCC1CCCC1)c1cnc(Nc2ccc(Cl)cc2Cl)cc1C(F)(F)F | 2.63 | 
4 | O=C(NCc1ccc(F)cc1)c1cnc(Nc2cccc(Br)c2)cc1C(F)(F)F | 2.63 | 
5 | NC(=O)c1ccc(CNC(=O)c2cnc(Nc3cccc(Cl)c3)cc2C(F)(F)F)cc1 | 2.63 | 
6 | CC(C)c1cc(Nc2cccc(Cl)c2)ncc1C(=O)NC1CCOCC1 | 6.02 | 
7 | CC(C)c1cc(Nc2cccc(C(F)(F)F)c2F)ncc1C(=O)NCC1CCOCC1 | 6.02 | 
8 | CC(C)c1cc(Nc2cccc(Cl)c2)ncc1C(=O)NCC1CCCC1 | 6.02 | 
9 | Cc1cccc(Nc2cc(C(C)C)c(C(=O)NCC3CCC3)cn2)c1 | 6.02 | 
10 | CC(C)CNC(=O)c1cnc(Nc2cccc(Cl)c2)cc1C(C)C | 6.02 | 
11 | O=C(NCC1CCOCC1)c1cnc(Nc2cccc(F)c2)cc1C(F)(F)F | 2.63 | 
12 | Cc1cc(Cl)ccc1Nc1cc(C(F)(F)F)c(C(=O)NCC2CCOCC2)cn1 | 2.63 | 
13 | COc1ccc(Cl)cc1Nc1cc(C(F)(F)F)c(C(=O)NCC2CCC2)cn1 | 2.63 | 
14 | O=C(NCC1CCCCC1)c1cnc(Nc2cccc(Cl)c2)cc1C(F)(F)F | 2.63 | 
15 | CCC(CC)CNC(=O)c1cnc(Nc2cccc(Cl)c2)cc1C(C)C | 6.02 | 
16 | CC(C)(C)c1cc(Nc2ccc(Cl)cc2Cl)ncc1C(=O)NCC1CCOCC1 |  | AUC (Rattus norvegicus): 16 kg·min/L
17 | CC(C)c1cc(Nc2ccc(Cl)cc2Cl)ncc1C(=O)NCC1CCOCC1 | 6.02 | 
18 | CC(C)c1cc(Nc2cccc(Br)c2)ncc1C(=O)NCC1CCOCC1 | 6.02 | 
19 | Cc1cccc(Nc2cc(C(C)C)c(C(=O)NCC3CCOCC3)cn2)c1 | 6.02 | 
20 | CC(C)c1cc(Nc2cccc(C#N)c2)ncc1C(=O)NCC1CCOCC1 | 6.02 | 
21 | O=C(NCC1CCOCC1)c1cnc(Nc2cccc(Br)c2)cc1C1CC1 |  | AUC (Rattus norvegicus): 5 kg·min/L
22 | COc1cccc(Nc2cc(C(C)C)c(C(=O)NCC3CCOCC3)cn2)c1 | 6.02 | 
23 | CC(C)c1cc(Nc2cccc(Cl)c2)ncc1C(=O)NCC(C)(C)C | 6.02 | 
24 | CC(C)c1cc(Nc2cccc(Cl)c2)ncc1C(=O)NCc1ccc(F)cc1 | 6.02 | 
25 | CC(C)c1cc(Nc2ccc(C#N)c(Cl)c2)ncc1C(=O)NCC1CCOCC1 | 6.02 | 
26 | O=C(NCC1CCOCC1)c1cnc(Nc2ccc(Cl)cc2Cl)cc1C1CC1 |  | bioavailability [2]: 39%; AUC (Rattus norvegicus): 15 kg·min/L; clearance [3]: 14 mL/min/kg and 14 mL/min; Vd [4]: 2.4 L/kg; half-life [5]: 3.1 h
27 | COc1ccc(Cl)cc1Nc1cc(C(F)(F)F)c(C(=O)NCC2CCOCC2)cn1 | 2.63 | 
28 | O=C(NCC1CCOCC1)c1cnc(Nc2cccc(OC(F)(F)F)c2)cc1C1CC1 |  | AUC (Rattus norvegicus): 3 kg·min/L
29 | O=C(NCC1CCOCC1)c1cnc(Nc2ccc(Cl)cc2Cl)cc1C(F)(F)F | 2.63 | 
